This is an account of results in paper PMC4979060, “Structural basis of metallo-β-lactamase, serine-β-lactamase and penicillin-binding protein inhibition by cyclic boronates” (Nature Communications, 2016).

The target in one data set is T1, PBP 3 (Pseudomonas aeruginosa, UniProt G3XD46).
T1 construct: made in house; host or cells: E. coli
Briefly: PBP inhibition assay (nitrocefin substrate), PBP 3. To be noted: NI = no inhibition at 100 μM, read-out: IC50 (μM)/pIC50 (converted). Type of data set: biochemical. As to the method: (§1) Kinetic and inhibition analyses, and ^19F NMR studies[10] against bacterial β-lactamases were performed as described. The FC-5 cephalosporin[9] was used as substrate for BcII, VIM-2, IMP-1, NDM-1, SPM-1, TEM-1 and OXA-10, meropenem[28] for CphA and nitrocefin[34] for PBP 3 and PBP 5.
(§2) In brief IC50 values were determined by preincubation of the appropriate amount of enzyme with the cyclic boronates in the assay buffers for 10 min at room temperature prior to the initiation of the assay by the addition of the appropriate substrate. The enzyme concentrations used are the following: 1 nM BcII, 100 nM VIM-2, 10 nM IMP-1, 10 nM NDM-1, 1 nM SPM-1, 1 nM TEM-1, 1 nM OXA-10, 2.5 nM CphA, 4 μM PBP 3 and 5 μM PBP 5; note that the final concentrations are stated. The assay buffers used are the following: 50 mM HEPES, pH 7.2 supplemented with 1 μg BSA, 1 μg ZnSO4 and 0.01% Triton for BcII, VIM-2, IMP-1, NDM-1 and SPM-1, 15 mM MES, pH 6.5 for CphA, 50 mM HEPES, pH 7.2 supplemented with 200 mM NaCl and 0.01% Triton 100 for TEM-1, 100 mM sodium phosphate, pH 7.2 supplemented with 50 mM NaHCO3 and 0.01% Triton 100 for OXA-10 and 50 mM HEPES, pH 7.2 supplemented with 200 mM NaCl and 0.01% Triton 100 for PBP 3 and PBP 5. The amount of substrates used is the following: 5 μM for BcII, VIM-2, IMP-1, NDM-1 and SPM-1, 10 μM for TEM-1 and OXA-10, 125 μM for CphA and 25 μM for PBP 3 and PBP 5; note that the final concentrations are stated.
(§3) The experiments were performed using a PHERAstar FS microplate reader (BMG Labtech) at room temperature (24–25 °C). All enzymes and inhibitors were prepared in the specific assay buffer. The kinetic values in this study are the means from at least three independent measurements; at least nine different concentrations of the inhibitor were used to determine the kinetic parameters (IC50). The IC50 values were determined using the software package Graph Prism 5.

A further data set concerns HEK293 cells. Briefly: Cytotoxicity assay (MTS). Type of data set: cell-based. The note with it: human HEK293 cells, concentrations up to 100 μM, 24 h. On the procedure:
HEK293 cells were seeded (2,000 per well) in normal DMEM in 96-well plates.[34] After 24 h, wells were dosed with titrated concentration of compounds in 1% dimethyl sulphoxide (DMSO)—final volume of media about 100 μl. Following a further 24 h incubation period, 20 μl tetrazolium (MTS, CellTiter96Aqueous One Solution (Promega)) was added to the media in each well. The plate was incubated at 37 °C, 5% CO2 for 4 h in the dark before absorbance was read at 490 nm to determine cell proliferation values.

A further data set has as its target T2, BcII (Bacillus cereus, UniProt P04190).
T2 construct: made in house; host or cells: E. coli
Briefly: Fluorogenic β-lactamase inhibition assay (FC-5 substrate), BcII. Type of data set: biochemical. On the procedure: as §1, §2, §3

The target in a further data set is T3, VIM-2 (Escherichia coli, UniProt Q5U7L7).
T3 construct: made in house; host or cells: E. coli
Briefly: Fluorogenic β-lactamase inhibition assay (FC-5 substrate), VIM-2. Type of data set: biochemical. On the procedure: as §1, §2, §3

The next data set deals with T4, NDM-1 (Klebsiella pneumoniae, UniProt C7C422).
T4 construct: made in house; host or cells: E. coli
T4 sequence (C7C422 29-270, looked up, species assumed): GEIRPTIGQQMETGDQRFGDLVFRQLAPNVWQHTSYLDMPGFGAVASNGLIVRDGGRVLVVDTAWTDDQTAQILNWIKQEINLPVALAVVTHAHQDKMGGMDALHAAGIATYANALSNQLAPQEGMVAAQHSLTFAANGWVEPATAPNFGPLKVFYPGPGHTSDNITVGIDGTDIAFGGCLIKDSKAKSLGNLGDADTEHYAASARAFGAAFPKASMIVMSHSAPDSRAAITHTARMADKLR
Briefly: Fluorogenic β-lactamase inhibition assay (FC-5 substrate), NDM-1. Type of data set: biochemical. On the procedure:
as §1, §2, §3

In a further data set the target is SPM-1 (Pseudomonas aeruginosa, UniProt Q8G9Q0). Briefly: Fluorogenic β-lactamase inhibition assay (FC-5 substrate), SPM-1. Type of data set: biochemical. As to the method: as §1, §2, §3
Chain of SPM-1 (Q8G9Q0 entry or part of it): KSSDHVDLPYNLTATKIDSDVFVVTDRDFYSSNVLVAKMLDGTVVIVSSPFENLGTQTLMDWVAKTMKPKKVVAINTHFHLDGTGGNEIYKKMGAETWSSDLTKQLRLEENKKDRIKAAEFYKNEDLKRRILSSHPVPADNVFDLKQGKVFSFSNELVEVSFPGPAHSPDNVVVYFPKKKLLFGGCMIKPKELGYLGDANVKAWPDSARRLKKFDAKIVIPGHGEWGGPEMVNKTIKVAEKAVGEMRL
The target in the next data set is T5, IMP-1 (Serratia marcescens, UniProt P52699).
T5 construct: made in house; host or cells: E. coli
T5 sequence (P52699 19-246, looked up, species assumed): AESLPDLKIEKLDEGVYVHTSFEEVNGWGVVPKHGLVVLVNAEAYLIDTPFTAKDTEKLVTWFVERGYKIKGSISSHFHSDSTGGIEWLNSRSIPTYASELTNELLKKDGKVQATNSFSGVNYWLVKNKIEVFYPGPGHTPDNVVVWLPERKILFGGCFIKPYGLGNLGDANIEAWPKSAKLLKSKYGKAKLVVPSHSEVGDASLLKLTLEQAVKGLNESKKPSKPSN
Briefly: Fluorogenic β-lactamase inhibition assay (FC-5 substrate), IMP-1. Type of data set: biochemical. As to the method:
as §1
In brief IC50 values were determined by preincubation of the appropriate amount of enzyme with the cyclic boronates in the assay buffers for 10 min at room temperature prior to the initiation of the assay by the addition of the appropriate substrate. The enzyme concentrations used are the following: 1 nM BcII, 100 nM VIM-2, 10 nM IMP-1, 10 nM NDM-1, 1 nM SPM-1, 1 nM TEM-1, 1 nM OXA-10, 2.5 nM CphA, 4 μM PBP 3 and 5 μM PBP 5; note that the final concentrations are stated. […]
The experiments were performed using a PHERAstar FS microplate reader (BMG Labtech) at room temperature (24–25 °C). […] The IC50 values were determined using the software package Graph Prism 5.

The next data set deals with T6, OXA-10 (Pseudomonas aeruginosa, UniProt P14489).
T6 construct: made in house; host or cells: E. coli
T6 sequence (P14489 20-266, species assumed): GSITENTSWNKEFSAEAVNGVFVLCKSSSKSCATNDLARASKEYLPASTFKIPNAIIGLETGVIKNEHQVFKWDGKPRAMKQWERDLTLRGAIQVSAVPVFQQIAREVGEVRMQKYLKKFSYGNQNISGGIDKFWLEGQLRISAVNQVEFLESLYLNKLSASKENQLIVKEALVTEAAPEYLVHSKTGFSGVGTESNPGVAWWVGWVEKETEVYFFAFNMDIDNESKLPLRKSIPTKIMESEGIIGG
Kind of data set: Fluorogenic β-lactamase inhibition assay (FC-5 substrate), OXA-10. Type of data set: biochemical. On the procedure:
as §1, §2, §3

In the next data set the target is T7, TEM-1 (Escherichia coli, UniProt P62593).
T7 construct: made in house; host or cells: E. coli
T7 sequence (P62593 24-286 limits assumed): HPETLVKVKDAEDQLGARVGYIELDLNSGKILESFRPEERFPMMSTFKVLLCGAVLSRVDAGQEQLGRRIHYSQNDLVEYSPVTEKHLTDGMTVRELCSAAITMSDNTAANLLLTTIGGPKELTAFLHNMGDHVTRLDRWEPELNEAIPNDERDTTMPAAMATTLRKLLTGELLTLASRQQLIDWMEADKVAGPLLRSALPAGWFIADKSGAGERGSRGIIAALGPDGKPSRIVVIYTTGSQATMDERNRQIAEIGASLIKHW
Kind of data set: Fluorogenic β-lactamase inhibition assay (FC-5 substrate), TEM-1. Type of data set: biochemical. As to the method: as §1, §2, §3

The next data set concerns the target T8, CphA (Aeromonas hydrophila, UniProt P26918).
T8 construct: made in house; host or cells: E. coli
Kind of data set: B2 MBL inhibition assay (meropenem substrate), CphA. Type of data set: biochemical, Aeromonas hydrophilia. On the procedure:
as §1, §2, §3

T2 sequence (P04190 31-257): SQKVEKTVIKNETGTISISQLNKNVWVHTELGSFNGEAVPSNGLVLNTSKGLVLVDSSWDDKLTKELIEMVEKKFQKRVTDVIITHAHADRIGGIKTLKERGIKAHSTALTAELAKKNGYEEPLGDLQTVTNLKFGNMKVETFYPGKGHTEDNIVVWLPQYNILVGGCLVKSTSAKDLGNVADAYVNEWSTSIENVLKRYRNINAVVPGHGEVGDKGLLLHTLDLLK
T8 sequence (P26918 28-254): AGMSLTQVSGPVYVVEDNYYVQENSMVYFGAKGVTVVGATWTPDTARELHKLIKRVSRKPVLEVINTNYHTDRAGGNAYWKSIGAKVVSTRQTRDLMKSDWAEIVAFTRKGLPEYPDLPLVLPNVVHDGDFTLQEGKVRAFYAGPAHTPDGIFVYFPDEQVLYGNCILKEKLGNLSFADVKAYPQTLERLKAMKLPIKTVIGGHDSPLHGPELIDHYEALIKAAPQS
T1 sequence (G3XD46 whole entry): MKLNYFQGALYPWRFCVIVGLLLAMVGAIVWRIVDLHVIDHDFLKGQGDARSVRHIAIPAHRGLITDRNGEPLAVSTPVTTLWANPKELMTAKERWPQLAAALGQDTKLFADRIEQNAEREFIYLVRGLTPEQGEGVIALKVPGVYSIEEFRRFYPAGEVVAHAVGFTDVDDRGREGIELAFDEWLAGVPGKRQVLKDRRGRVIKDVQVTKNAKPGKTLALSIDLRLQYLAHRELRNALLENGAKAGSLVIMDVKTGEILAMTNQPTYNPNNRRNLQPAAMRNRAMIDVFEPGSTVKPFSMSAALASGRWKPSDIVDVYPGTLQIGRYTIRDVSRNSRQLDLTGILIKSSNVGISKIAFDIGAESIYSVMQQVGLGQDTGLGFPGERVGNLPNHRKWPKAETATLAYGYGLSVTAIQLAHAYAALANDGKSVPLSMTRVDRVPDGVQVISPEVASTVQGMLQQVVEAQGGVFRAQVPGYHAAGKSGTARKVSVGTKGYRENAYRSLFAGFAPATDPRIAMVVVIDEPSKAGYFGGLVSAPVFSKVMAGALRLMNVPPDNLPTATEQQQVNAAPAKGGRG

Take `O=C(O)c1cccc2c1O[B-](O)(O)[C@@H](NC(=O)C1CCCCC1)C2` [compound 1]: the IC50 is > 100 µM at PBP 3; 7.27 µM on BcII (10 min preincubation); 0.051 µM against VIM-2 (10 min preincubation); 2.04 µM against NDM-1 (10 min preincubation); 24.1 µM against SPM-1 (10 min preincubation); 0.001 µM at TEM-1 (10 min preincubation). This molecule gave an IC50 against CphA (10 min preincubation) of 4.42 µM. The cytotoxicity entry with HEK293 cells is listed as “Neither 1 nor 2 showed cytotoxicity”. In addition, the pIC50 at BcII is recorded as 5.1; at VIM-2 it was 7.3; on NDM-1 it was 5.7; on SPM-1, 4.6; against IMP-1, 4.6; at OXA-10 it was 6.4. The negative-log IC50 (pIC50) against TEM-1 came to 8.9; against CphA, 5.3.

A word on the pIC50: it is the IC50 on a negative log10 scale, so that one unit is a factor of ten. A high value points to a low IC50.
